Measurements: the NIST ThermoML archive (doi:10.1016/j.jct.2015.07.042)
Numbers after ± are expanded uncertainties.

Test: activity coefficient (dimensionless); of the first substance listed, at infinite dilution; xn = mol fraction of the nth substance listed
Settings: 101 kPa, Liquid, Chromatography, x1 = 0

| Compound | activity coefficient (398.15 K) | activity coefficient (408.15 K) | activity coefficient (418.15 K) | activity coefficient (428.15 K) | activity coefficient (358.15 K) | activity coefficient (368.15 K) | activity coefficient (378.15 K) | activity coefficient (388.15 K) |
| --- | --- | --- | --- | --- | --- | --- | --- | --- |
| CC(C)O [propan-2-ol] + CCCCn1cc[n+](C)c1.COP(=O)([O-])OC | 0.256 ± 0.03 | 0.282 ± 0.03 | 0.311 ± 0.031 | 0.344 ± 0.032 |  |  |  |  |
| CCC(=O)OC [methyl propanoate] + CCCCn1cc[n+](C)c1.[Cl-] |  |  |  |  | 8 ± 0.55 | 8.09 ± 0.55 | 8.2 ± 0.56 | 8.31 ± 0.57 |
| CCOCC [diethyl ether] + CCCCn1cc[n+](C)c1.[Cl-] |  |  |  |  | 19.3 ± 1.3 | 18.9 ± 1.3 | 18.4 ± 1.3 | 18.4 ± 1.3 |
| CCCCCCCCC [nonane] + CCCCn1cc[n+](C)c1.COP(=O)([O-])OC |  |  |  |  | 67.9 ± 4.7 | 64 ± 4.4 | 61.5 ± 4.2 | 59.1 ± 4 |
| CCC(=O)OC [methyl propanoate] + CCCCn1cc[n+](C)c1.CS(=O)(=O)[O-] |  |  |  |  | 4.43 ± 0.3 | 4.56 ± 0.31 | 4.68 ± 0.32 | 4.9 ± 0.33 |
| CCC(=O)CC [pentan-3-one] + CCCCn1cc[n+](C)c1.[Cl-] |  |  |  |  | 7.6 ± 0.52 | 7.72 ± 0.53 | 7.78 ± 0.53 | 7.97 ± 0.54 |
| CCC[N+](=O)[O-] [1-nitropropane] + CCCCn1cc[n+](C)c1.[Cl-] |  |  |  |  | 2.51 ± 0.17 | 2.61 ± 0.18 | 2.69 ± 0.18 | 2.8 ± 0.19 |
| CCC(C)O (configuration not stated) [butan-2-ol] + CCCCn1cc[n+](C)c1.[Cl-] | 0.749 ± 0.049 | 0.804 ± 0.052 | 0.865 ± 0.055 | 0.931 ± 0.059 |  |  |  |  |
| CC(C)=O [acetone] + CCCCn1cc[n+](C)c1.CS(=O)(=O)[O-] |  |  |  |  | 2.06 ± 0.14 | 2.12 ± 0.14 | 2.22 ± 0.15 | 2.3 ± 0.16 |
| c1ccccc1 [benzene] + CCCCn1cc[n+](C)c1.COP(=O)([O-])OC |  |  |  |  | 2.33 ± 0.16 | 2.41 ± 0.16 | 2.49 ± 0.17 | 2.63 ± 0.18 |
| C1CCCC1 [cyclopentane] + CCCCn1cc[n+](C)c1.[Cl-] |  |  |  |  | 38.7 ± 2.6 | 36.2 ± 2.5 | 33.5 ± 2.3 | 31.8 ± 2.2 |
| c1ccccc1 [benzene] + CCCCn1cc[n+](C)c1.[Cl-] |  |  |  |  | 4.51 ± 0.31 | 4.59 ± 0.31 | 4.72 ± 0.32 | 4.82 ± 0.33 |
| C=CCCCCCC [oct-1-ene] + CCCCn1cc[n+](C)c1.CS(=O)(=O)[O-] |  |  |  |  | 88.1 ± 6 | 86.8 ± 6 | 86.5 ± 5.9 | 85.6 ± 5.9 |
| C#CCCCCC [1-heptyne] + CCCCn1cc[n+](C)c1.COP(=O)([O-])OC |  |  |  |  | 4.21 ± 0.29 | 4.48 ± 0.31 | 4.7 ± 0.32 | 4.93 ± 0.34 |
| C=C(C)c1ccccc1 [(1-methylethenyl)benzene] + CCCCn1cc[n+](C)c1.COP(=O)([O-])OC |  |  |  |  | 4.57 ± 0.31 | 4.77 ± 0.33 | 4.98 ± 0.34 | 5.29 ± 0.36 |
| CCC(C)(C)OC [2-methoxy-2-methylbutane] + CCCCn1cc[n+](C)c1.COP(=O)([O-])OC |  |  |  |  | 9.5 ± 0.65 | 9.61 ± 0.66 | 9.66 ± 0.66 | 9.75 ± 0.67 |
| CC1CCCCC1 [methylcyclohexane] + CCCCn1cc[n+](C)c1.CS(=O)(=O)[O-] |  |  |  |  | 52.8 ± 3.6 | 51.7 ± 3.5 | 50.9 ± 3.5 | 50.4 ± 3.5 |
| CCCO [propan-1-ol] + CCCCn1cc[n+](C)c1.[Cl-] | 0.408 ± 0.034 | 0.434 ± 0.035 | 0.464 ± 0.036 | 0.501 ± 0.038 |  |  |  |  |
| CCCC(C)=O [pentan-2-one] + CCCCn1cc[n+](C)c1.CS(=O)(=O)[O-] |  |  |  |  | 4.5 ± 0.31 | 4.59 ± 0.31 | 4.76 ± 0.32 | 4.91 ± 0.33 |
| CC(C)O [propan-2-ol] + CCCCn1cc[n+](C)c1.[Cl-] | 0.542 ± 0.04 | 0.577 ± 0.041 | 0.619 ± 0.043 | 0.668 ± 0.045 |  |  |  |  |
| c1ccccc1 [benzene] + CCCCn1cc[n+](C)c1.CS(=O)(=O)[O-] |  |  |  |  | 3.08 ± 0.21 | 3.19 ± 0.22 | 3.29 ± 0.22 | 3.46 ± 0.24 |
| Cc1ccccc1 [toluene] + CCCCn1cc[n+](C)c1.[Cl-] |  |  |  |  | 7.78 ± 0.53 | 7.91 ± 0.54 | 8.09 ± 0.55 | 8.36 ± 0.57 |
| CC(C)(C)O [2-methylpropan-2-ol] + CCCCn1cc[n+](C)c1.CS(=O)(=O)[O-] | 1.28 ± 0.083 | 1.39 ± 0.09 | 1.48 ± 0.098 | 1.59 ± 0.11 |  |  |  |  |
